Data from patent US9895375B2, “Compositions containing riboflavin and sesamin-class compounds” (SUNTORY HOLDINGS LIMITED, priority 2006, dated 2018).

Legend:
[1] = perorally, 1 to 50 mg/kg; no further rise up to 75 mg; cited from earlier work
[2] = ingested in high doses; cited from earlier work
[3] = intraperitoneally, 3 to 100 mg/kg; cited from earlier work
male Balb/b mice = experiment: water immersion sleep deprivation test (weighted swimming time); format: in vivo; conditions: Example 3, FIG. 4; riboflavin 25 or 50 mg/kg (riboflavin equivalent), sesamin 50 mg/kg, p.o. once a day for 2 days of water immersion
Method: That is, by measuring the swimming time in a water-immersion sleep deprivation test. A mouse, kept in such an environment as water immersion that they are unable to have a sufficient sleep or resting position to rest physically or mentally, is forced to swim under the stress of a weight and the time it takes to have its nose submerged in the water for at least 10 seconds is measured to determine the degree of its fatigue. Since this animal model is a physical and mental fatigue model, if the administration of a test substance prolongs the swimming time, it is confirmed that the model has resistance to fatigue, as exemplified by prevention or amelioration of physical and mental fatigue and the accompanying distress such as muscular pain, an increase in physical strength that helps prolong the time to exhaustion, and maintenance of physical vigor in a fatigued state.
The effect against fatigue was evaluated by a water immersion sleep deprivation test. […]
After two days of water immersion, the mice were allowed to swim with a weight attached to each of their tails having a mass equivalent to 8% of their body weight, and the time they took to have their nose submerged in water for at least 10 seconds was measured.
The anti-fatigue action due to riboflavin and a sesamin-class compound(s) was measured as in Example 3, except that the mice were divided into six groups as shown in Table 2.

Wistar male rats = experiment: acetic acid writhing test; format: in vivo
Method: A test on analgesic action was conducted by a partly modified version of the acetic acid writhing test of Moon et. al. (Biol. Pharm. Bull. (2005)). The specific test method was as follows. […] Three days before the acetic acid writhing test, the rats were divided into three groups each consisting of 6 heads; the control group was orally administered through a tube with olive oil at a dose of 5 ml/kg whereas the remaining two groups were administered with sesamin-class compounds (sesamin/episesamin mixture; sesamin: episesamin (weight ratio)=5:5) as they were dissolved in olive oil at respective doses of 50 mg/kg and 100 mg/kg. Subsequently, administration was similarly performed two days before the test and on the day before the test, two administrations were effected, one in the morning and the other in the evening; thus, a total of four administrations were effected. On the day of testing, rats that had been fasted overnight from the previous night were orally administered with 5 ml/kg of physiological saline and one hour later, they were administered intraperitoneally with 1 ml/170 g of physiological saline containing 1% acetic acid and immediately after this administration, the number of writhing movements the animals made for 30 minutes right after the administration was counted. […]

In the case of `Cc1cc2nc3c(=O)[nH]c(=O)nc-3n(C[C@H](O)[C@H](O)[C@H](O)COP(=O)(O)O)c2cc1C` [riboflavin, riboflavin sodium phosphate], the “analgesic effect in a formaldehyde test” value [1] is listed as “peaked at 25 mg”, the migraine prophylaxis [2] is listed as “effective for migraine prophylaxis” and the “analgesic action against inflammatory pain” value [3] is listed as “showed an analgesic action against inflammatory pain in a dose-dependent fashion”. The “effect against pain in the nervous system” value [3] was “ineffective”, the “suppression of the shortening of the swimming time (anti-fatigue action)” value (male Balb/b mice) was “suppressed in the shortening of the swimming time” and the “number of writhing movements versus control group (Olive+Saline)” value (Wistar male rats; Example 1, FIG. 2, vitamin B2 30 mg/kg riboflavin equivalent p.o. alone) was “tendency to make a smaller number of writhing movements than the control group”. The “suppression of number of writhing movements compared with control group (Olive+Saline)” value (Wistar male rats; Example 2, FIG. 3, vitamin B2 30 mg/kg riboflavin equivalent p.o., sesamin-class compounds 100 mg/kg p.o. x4 in the combination) was 10.5%.
